Consider 2 molecules from paper PMC9246205, “Olmesartan medoxomil self-microemulsifying drug delivery system reverses apoptosis and improves cell adhesion in trinitrobenzene sulfonic acid-induced colitis in rats” (Drug Delivery, 2022).

Common to all, as to assay type: in vivo, rat
The test system of assay [1] is trinitrobenzene sulfonic acid-induced acute colitis. Description: Disease activity score in TNBS-induced acute colitis. Conditions: TNBS-colitic rats, 7 days, mean ± SEM, n = 8. As for the experimental part:
(§1) The rats were food-deprived for a day, and colitis was induced as previously described (Wang et al., [2010]). Rats were anesthetized with ether and then a 5% TNBS (Sigma, St Louis, USA) (100 mg/kg) dissolved in 0.25 mL of 50% ethanol (v/v) (2:1) was administered by a polyethylene catheter introduced rectally to 6–8 cm from the anus. Rats were set in a head-down position for 30 seconds to avoid leakage of the solution (Lu et al., [2017]). Rats were randomly divided into seven groups (n = 8) including the normal control (NC) group, TNBS-colitic (positive control, PC) group, and five TNBS-colitic-treated groups which were orally given sulfasalazine (SSZ, 100 mg/kg/day, a reference treatment for IBD) (Yousefi-Ahmadipour et al., [2020]), low and high doses of OM (OML and OMH: 3.0 and 10.0 mg/kg/day (Nagib et al., [2013])) as a raw drug and as an OMS (OMSL and OMSH). OM was suspended in distilled water containing 0.25% carboxymethyl cellulose (Gorain et al., [2014]; Komesli et al., [2019]). The treatments were given for 7 days starting 4 hours after TNBS administration (Lu et al., [2017]). Rats were evaluated for the colitis activity score. At end of the treatment period, blood was collected, and rats were sacrificed. The colon was excised, cleaned with ice-cold saline, measured for weight and length, and the macroscopic appearance was evaluated. Parts of the colon were homogenized and activities/levels of myeloperoxidase (MPO), tumor necrosis factor-α (TNF-α), interleukin-6 (IL-6), malondialdehyde (MDA), and reduced glutathione (GSH) were measured. The concentrations of olmesartan in plasma and colonic homogenate were measured by high performance liquid chromatography/mass spectrometry (HPLC/MS). Samples of the colon were obtained for hematoxylin and eosin (H&E) and immunohistochemical staining (Joo et al., [2015])). […]
The colitis activity index was measured to evaluate the activity of intestinal inflammation. The scores for weight loss, stool consistency, and fecal blood were calculated to give a disease activity score (DAS) as previously described (Wang et al., [2014]). […]

Assay [2] relates to matrix metalloproteinase-9 (MMP-9). Description: Colonic MMP-9 immunostaining. The settings on record: TNBS-colitic rats, 7 days. As for the experimental part:
as §1, with “(HPLC/MS).” for “(HPLC/MS). Samples of the colon were obtained for hematoxylin and eosin (H&E) and immunohistochemical staining (Joo et al., [2015])).”
(§2) Colonic sections were immunohistochemically stained for E-cadherin and Caspase-3 (ab13847; Abcam; 1:500 dilution). […] For MMP-9 immunostaining, the sections were probed with rabbit and mouse monoclonal anti-MMP-9 (1:150 dilution), detected with sheep anti-rabbit or anti-mouse IgG fluorescein isothiocyanate (1:500 dilution), and examined under a fluorescent microscope (Baugh et al., [1999]).

The test system of a further assay is E-cadherin. In words: Colonic E-cadherin immunostaining. The settings on record: TNBS-colitic rats, 7 days. How it is done:
as §1, with “(HPLC/MS).” for “(HPLC/MS). Samples of the colon were obtained for hematoxylin and eosin (H&E) and immunohistochemical staining (Joo et al., [2015])).”
as §2

The subject of another assay is caspase-3. In words: Colonic caspase-3 immunostaining. The settings on record: TNBS-colitic rats, 7 days. As for the experimental part:
as §1, with “(HPLC/MS).” for “(HPLC/MS). Samples of the colon were obtained for hematoxylin and eosin (H&E) and immunohistochemical staining (Joo et al., [2015])).”
as §2

Assay [3] has as its system tumor necrosis factor-α (TNF-α). In words: Colonic TNF-α (ELISA, colon homogenate). The settings on record: TNBS-colitic rats, 7 days, mean ± SEM, n = 8. As for the experimental part: as §1, with “At end of the treatment period, blood was collected, and rats were sacrificed.” left out, “(HPLC/MS).” for “(HPLC/MS). Samples of the colon were obtained for hematoxylin and eosin (H&E) and immunohistochemical staining (Joo et al., [2015])).”
(§3) The colonic samples were homogenized using phosphate-buffered saline and a TissueLyser II (Qiagen) at 4 °C to yield a 10% homogenate. […] The colonic protein content was determined by using the Bradford method (Bradford, 1976). The activities and/or levels of MPO (a marker for neutrophil infiltration), TNF-α, IL-6, MDA, and GSH were measured using ELISA kits (MyBioSource, Inc. CA, USA) according to the manufacturer's guidelines and were expressed/mg protein.

Assay [4] has as its system trinitrobenzene sulfonic acid-induced acute colitis. In words: Colonic macroscopic examination and colon weight/length ratio in TNBS-induced acute colitis. The settings on record: TNBS-colitic rats, 7 days; for Colon weight/length ratio: mean ± SEM, n = 8. How it is done: (§4) The rats were food-deprived for a day, and colitis was induced as previously described (Wang et al., [2010]). Rats were anesthetized with ether and then a 5% TNBS (Sigma, St Louis, USA) (100 mg/kg) dissolved in 0.25 mL of 50% ethanol (v/v) (2:1) was administered by a polyethylene catheter introduced rectally to 6–8 cm from the anus. Rats were set in a head-down position for 30 seconds to avoid leakage of the solution (Lu et al., [2017]). Rats were randomly divided into seven groups (n = 8) including the normal control (NC) group, TNBS-colitic (positive control, PC) group, and five TNBS-colitic-treated groups which were orally given sulfasalazine (SSZ, 100 mg/kg/day, a reference treatment for IBD) (Yousefi-Ahmadipour et al., [2020]), low and high doses of OM (OML and OMH: 3.0 and 10.0 mg/kg/day (Nagib et al., [2013])) as a raw drug and as an OMS (OMSL and OMSH). OM was suspended in distilled water containing 0.25% carboxymethyl cellulose (Gorain et al., [2014]; Komesli et al., [2019]). The treatments were given for 7 days starting 4 hours after TNBS administration (Lu et al., [2017]). Rats were evaluated for the colitis activity score. At end of the treatment period, blood was collected, and rats were sacrificed. The colon was excised, cleaned with ice-cold saline, measured for weight and length, and the macroscopic appearance was evaluated. Parts of the colon were homogenized and activities/levels of myeloperoxidase (MPO), tumor necrosis factor-α (TNF-α), interleukin-6 (IL-6), malondialdehyde (MDA), and reduced glutathione (GSH) were measured. The concentrations of olmesartan in plasma and colonic homogenate were measured by high performance liquid chromatography/mass spectrometry (HPLC/MS). Samples of the colon were obtained for hematoxylin and eosin (H&E) and immunohistochemical staining (Joo et al., [2015])). All evaluations were made by blinded observers.
The colon was measured for weight and length. The degree of colonic damage regarding edema, ulceration, bleeding, and necrosis was expressed as mild, moderate, or severe (Ghia et al., [2006]).

The next assay deals with myeloperoxidase (MPO). Description: Colonic MPO activity (ELISA, colon homogenate). Conditions: TNBS-colitic rats, 7 days, mean ± SEM, n = 8. As for the experimental part: as §1, with “At end of the treatment period, blood was collected, and rats were sacrificed.” left out, “(HPLC/MS).” for “(HPLC/MS). Samples of the colon were obtained for hematoxylin and eosin (H&E) and immunohistochemical staining (Joo et al., [2015])).”
as §3
For orientation: In an ELISA, binding on a coated surface is turned into a signal by an enzyme label.

In assay [5] the test system is E-cadherin, Bax, Bcl-2, cleaved caspase-3. Description: Western blot of colonic E-cadherin, Bax, Bcl-2 and cleaved caspase-3. Conditions: TNBS-colitic rats, 7 days. How it is done:
as §4, with “observers. […]” for “observers.”
(Immunoblotting shows a protein as a band on a membrane.)

A further assay concerns malondialdehyde (MDA). Description: Colonic MDA (ELISA, colon homogenate). The settings on record: TNBS-colitic rats, 7 days, mean ± SEM, n = 8. How it is done: The rats were food-deprived for a day, and colitis was induced as previously described (Wang et al., [2010]). Rats were anesthetized with ether and then a 5% TNBS (Sigma, St Louis, USA) (100 mg/kg) dissolved in 0.25 mL of 50% ethanol (v/v) (2:1) was administered by a polyethylene catheter introduced rectally to 6–8 cm from the anus. Rats were set in a head-down position for 30 seconds to avoid leakage of the solution (Lu et al., [2017]). […] Rats were evaluated for the colitis activity score. […] The colon was excised, cleaned with ice-cold saline, measured for weight and length, and the macroscopic appearance was evaluated. Parts of the colon were homogenized and activities/levels of myeloperoxidase (MPO), tumor necrosis factor-α (TNF-α), interleukin-6 (IL-6), malondialdehyde (MDA), and reduced glutathione (GSH) were measured. The concentrations of olmesartan in plasma and colonic homogenate were measured by high performance liquid chromatography/mass spectrometry (HPLC/MS). […]
The colonic samples were homogenized using phosphate-buffered saline and a TissueLyser II (Qiagen) at 4 °C to yield a 10% homogenate. […] The colonic protein content was determined by using the Bradford method (Bradford, 1976). […]

Assay [6] concerns trinitrobenzene sulfonic acid-induced acute colitis. Description: Colonic histopathological examination (H&E). Conditions: TNBS-colitic rats, 7 days. How it is done:
as §1
The colonic parts were fixed in 10% buffered formalin and embedded in paraffin. Sections (3–5 µm) were prepared and stained with H&E. The degree of inflammation was expressed as mild, moderate, or severe (Wirtz et al., [2007]).

The test system of assay [7] is reduced glutathione (GSH). Description: Colonic GSH (ELISA, colon homogenate). The settings on record: TNBS-colitic rats, 7 days, mean ± SEM, n = 8. As for the experimental part:
as §1, with “At end of the treatment period, blood was collected, and rats were sacrificed.” left out, “(HPLC/MS).” for “(HPLC/MS). Samples of the colon were obtained for hematoxylin and eosin (H&E) and immunohistochemical staining (Joo et al., [2015])).”
as §3

A further assay deals with interleukin-6 (IL-6). In words: Colonic IL-6 (ELISA, colon homogenate). The settings on record: TNBS-colitic rats, 7 days, mean ± SEM, n = 8. As for the experimental part:
as §1, with “At end of the treatment period, blood was collected, and rats were sacrificed.” left out, “(HPLC/MS).” for “(HPLC/MS). Samples of the colon were obtained for hematoxylin and eosin (H&E) and immunohistochemical staining (Joo et al., [2015])).”
as §3

Setting [8] is: high dose 10.0 mg/kg/day orally.

Regarding `CCCc1nc(C(C)(C)O)c(C(=O)OCc2oc(=O)oc2C)n1Cc1ccc(-c2ccccc2-c2nnn[nH]2)cc1` [OM, Olmesartan medoxomil], the Disease activity score is on record as 3.01 ± 0.25 # in assay [1] (setting [8]) and 5.69 ± 0.26 ^ in [1] (low dose 3.0 mg/kg/day orally). Further, the results for the “colonic MMP-9 overexpression (immunostaining)” value in assay [2] (setting [8]) and in assay [2] (low dose 3.0 mg/kg/day orally) were “moderate improvement” and “mild improvement”, respectively. Besides, the figures for the “colonic E-cadherin expression (immunostaining)” value in the assay on E-cadherin (setting [8]) and in the assay with E-cadherin (low dose 3.0 mg/kg/day orally) were “moderate improvement” and “mild improvement”, respectively. In addition, the figures for the “colonic caspase-3 expression (immunostaining)” value in the assay on caspase-3 (setting [8]) and in the assay on caspase-3 (low dose 3.0 mg/kg/day orally) were “moderate improvement” and “mild improvement”, respectively. The TNF-α in [3] (setting [8]) is listed as 51.45 ± 2.47 # pg/mg protein; in assay [3] (low dose 3.0 mg/kg/day orally) it was 69.98 ± 3.50 ^ pg/mg protein. For the same molecule, the “colonic macroscopic appearance (damage)” value was “moderate improvement” in assay [4] (setting [8]) and “mild improvement” in assay [4] (low dose 3.0 mg/kg/day orally). For the same molecule, the Colon weight/length ratio in [4] (setting [8]) was 121.50 ± 6.91 # mg/cm; in [4] (low dose 3.0 mg/kg/day orally), 176.63 ± 3.49 ^ mg/cm. For the same molecule, the MPO activity in the assay on myeloperoxidase (MPO) (setting [8]) is 14.52 ± 0.61 # U/mg protein; in the assay with myeloperoxidase (MPO) (low dose 3.0 mg/kg/day orally), 20.90 ± 1.06 ^ U/mg protein. The entries for the “protein expression of colonic E-cadherin, Bax, Bcl-2, cleaved caspase-3 and Bcl-2/Bax ratio (Western blot)” value in [5] (setting [8]) and in assay [5] (low dose 3.0 mg/kg/day orally) were “moderate improvements” and “mild improvement”, respectively. Also, the MDA in the assay with malondialdehyde (MDA) (setting [8]) is reported as 149.57 ± 2.26 # nmol/mg protein; with malondialdehyde (MDA) (low dose 3.0 mg/kg/day orally) it was 221.25 ± 6.23 ^ nmol/mg protein. The “colonic histopathological damage (H&E)” value is “moderate improvement” in [6] (setting [8]) and “mild improvement” in assay [6] (low dose 3.0 mg/kg/day orally). The results for the GSH in assay [7] (setting [8]) and in assay [7] (low dose 3.0 mg/kg/day orally) were 29.03 ± 1.44 # nmol/mg protein and 19.77 ± 0.55 ^ nmol/mg protein, respectively. Moreover, the IL-6 with interleukin-6 (IL-6) (setting [8]) is reported as 122.43 ± 4.29 # pg/mg protein; in the assay on interleukin-6 (IL-6) (low dose 3.0 mg/kg/day orally) it was 160.57 ± 5.73 ^ pg/mg protein.
With `O=C(O)c1cc(/N=N/c2ccc(S(=O)(=O)Nc3ccccn3)cc2)ccc1O` [SSZ, sulfasalazine], in [1] (100 mg/kg/day orally), the Disease activity score is 0.45 ± 0.06 $. Besides, in [2] (100 mg/kg/day orally), the “colonic MMP-9 overexpression (immunostaining)” value is “marked improvement”. The “colonic E-cadherin expression (immunostaining)” value with E-cadherin (100 mg/kg/day orally) is “greatly upregulated and nearly normalized”. The “colonic caspase-3 expression (immunostaining)” value with caspase-3 (100 mg/kg/day orally) is “greatly decreased and nearly normalized”. Also, the TNF-α in [3] (100 mg/kg/day orally) is given as 20.49 ± 0.73 $ pg/mg protein. For the same molecule, in assay [4] (100 mg/kg/day orally), the “colonic macroscopic appearance (damage)” value was “greatly improved” and the Colon weight/length ratio is given as 78.23 ± 2.11 $ mg/cm. The MPO activity in the assay on myeloperoxidase (MPO) (100 mg/kg/day orally) is 8.01 ± 0.30 $, @ U/mg protein. The “protein expression of colonic E-cadherin, Bax, Bcl-2, cleaved caspase-3 and Bcl-2/Bax ratio (Western blot)” value in [5] (100 mg/kg/day orally) is on record as “marked improvement”. The “colonic histopathological damage (H&E)” value in assay [6] (100 mg/kg/day orally) is “nearly normalized the colonic damage”. Moreover, the GSH in assay [7] (100 mg/kg/day orally) is 39.75 ± 1.38 $ nmol/mg protein. Besides, in the assay on interleukin-6 (IL-6) (100 mg/kg/day orally), the IL-6 was 65.06 ± 1.46 $ pg/mg protein.
